US20220204497A1, “NOVEL COMPOUND HAVING ANTICANCER ACTIVITY, AND METHOD FOR PRODUCING SAME” (MEDICINAL BIOCONVERGENCE RESEARCH CENTER, priority 2019, published 2022)

What was measured:
A549 cells = assay: Cell viability by MTT method in A549 cells; assay type: cell-based; parameters: concentration or dose not given beside the values; conditions: 72 hours treatment
AIMP2-DX2 = molecular target: T1, AIMP2-DX2 (Homo sapiens, UniProt Q13155); assay: DX2-nanoluciferase assay (DX2 expression change) in transfected A549 cells; conditions: for DX-Nanoluciferase activity (40 μM) / DX-Nanoluciferase activity (10 μM): 4 hours treatment, A549 cells transfected with nanoluciferase-DX2; for DX-Nanoluciferase activity (40 μM) / inhibition at 40 µM: inhibitory effect on AIMP2-DX2 expression; for inhibition at 40 µM / inhibition at 10 µM: A549, 4 h; for inhibition at 40 µM: read-out: DX-Nanoluciferase activity (40 μM), 40 μM, 4 hours treatment, A549 cells transfected with nanoluciferase-DX2; for inhibition at 10 µM: read-out: DX-Nanoluciferase activity (10 μM), 10 μM, 4 hours treatment, A549 cells transfected with nanoluciferase-DX2
T1 sequence (Q13155 1-251 isoform Q13155-2): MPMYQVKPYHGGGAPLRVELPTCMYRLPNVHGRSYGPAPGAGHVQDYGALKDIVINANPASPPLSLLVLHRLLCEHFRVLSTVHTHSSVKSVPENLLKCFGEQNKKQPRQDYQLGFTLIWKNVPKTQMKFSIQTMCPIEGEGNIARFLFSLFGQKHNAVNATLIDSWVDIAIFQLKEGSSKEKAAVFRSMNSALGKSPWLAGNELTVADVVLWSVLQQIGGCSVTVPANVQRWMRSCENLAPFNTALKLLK
Description: After cloning DX2 into a plasmid expressing nanoluciferase, the plasmid was transfected into A549 cells. Transfected cells were seeded 1×10^4 per well in a 96-well plate and stabilized for 12 hours. […] Cell viability was measured by the MTT method after 72 hours of treatment with each concentration of the compound in A549 cells.

SMILES	Cell Viability (% inhibition) (A549) (A549 cells)	DX-Nanoluciferase activity (40 μM) (AIMP2-DX2)	inhibition at 40 µM (AIMP2-DX2) [%]	inhibition at 10 µM (AIMP2-DX2) [%]	DX-Nanoluciferase activity (10 μM) (AIMP2-DX2)
Cc1ccc(S(=O)(=O)N[C@@H](Cc2c[nH]c3ccccc23)C(=O)Nc2nc(C)cs2)cc1 [Compound 111, (S)-3-(1H-indol-3-yl)-2-(4-methylphenylsulfonamido)-N-(4-methylthiazol-2-yl)propanamide]	11.65 ± 6.05%	25.61 ± 22.32	–	–	–
Cc1ccc(S(=O)(=O)N[C@@H](Cc2c[nH]c3ccccc23)C(=O)Nc2ncc(C)s2)cc1 [Compound 112, (S)-3-(1H-indol-3-yl)-2-(4-methylphenylsulfonamido)-N-(5-methylthiazol-2-yl)propanamide]	15.01 ± 6.55%	–	61.5 ± 5.19	–	–
COC(=O)c1ccc(S(=O)(=O)N[C@@H](Cc2c[nH]c3ccccc23)C(=O)Nc2ccc(N3CCOCC3)cc2)cc1 [Compound 113, (S)-Methyl 4-(N-(3-(1H-indol-3-yl)-1-(4-morpholinophenylamino)-1-oxopropan-2-yl)sulfamoyl)benzoate]	4.67 ± 3.85%	–	–	15.1 ± 6.22	–
CCOC(=O)c1ccc(S(=O)(=O)N[C@@H](Cc2c[nH]c3ccccc23)C(=O)Nc2ccc(N3CCOCC3)cc2)cc1 [Compound 114, (S)-Ethyl 4-(N-(3-(1H-indol-3-yl)-1-(4-morpholinophenylamino)-1-oxopropan-2-yl)sulfamoyl)benzoate]	47.88 ± 0.53%	–	–	3.48 ± 8.58	–
Cc1ccc(S(=O)(=O)N[C@@H](Cc2ccc(C(=O)c3ccccc3)cc2)C(=O)Nc2ccc(N3CCOCC3)cc2)cc1 [Compound 115, (S)-3-(4-Benzoylphenyl)-2-(4-methylphenylsulfonamido)-N-(4-morpholinophenyl)propanamide]	0.35 ± 0.67%	–	–	2.16 ± 6.66	–
CNC(=O)c1ccc(S(=O)(=O)N[C@@H](Cc2c[nH]c3ccccc23)C(=O)Nc2ccc(N3CCOCC3)cc2)cc1 [Compound 116, (S)-4-(N-(3-(1H-indol-3-yl)-1-(4-morpholinophenylamino)-1-oxopropan-2-yl)sulfamoyl)-N-methylbenzamide]	34.22 ± 7.94%	–	–	-0.11 ± 15.1	–
Cc1ccc(S(=O)(=O)N[C@@H](Cc2ccc3ccccc3c2)C(=O)Nc2ccc(N3CCOCC3)cc2)cc1 [Compound 117, (S)-2-(4-Methylphenylsulfonamido)-N-(4-morpholinophenyl)-3-(naphthalen-2-yl)propanamide]	4.59 ± 6.86%	–	–	-2.56 ± 9.56	–
CC(C)(C)OC(=O)N[C@@H](Cc1c[nH]c2ccccc12)C(=O)Nc1ccc(N2CCOCC2)cc1 [Compound 118, (S)-tert-Butyl 3-(1H-Indol-3-yl)-1-(4-morpholinophenylamino)-1-oxopropan-2-ylcarbamate]	9.26 ± 7.63%	–	–	8.22 ± 5.02	–
Cc1ccc(S(=O)(=O)N[C@@H](Cc2c[nH]c3ccccc23)C(=O)O)cc1 [Compound 119, (S)-3-(1-Indol-3-yl)-2-(4-methylphenylsulfonamido)propanoic acid]	1.59 ± 8.71%	–	–	–	14.92 ± 10.18
COc1cc(N2CCN(C(=O)OC(C)(C)C)CC2)ccc1NC(=O)[C@H](Cc1c[nH]c2ccccc12)NS(=O)(=O)c1ccc(C)cc1 [Compound 120, (S)-tert-Butyl 4-(4-(3-(1H-indol-3-yl)-2-(4-methylphenylsulfonamido)propanamido)-3-methoxyphenyl)piperazine-1-carboxylate]	66.51 ± 1.24%	–	–	21.3 ± 14.2	–
COc1cc(N2CCNCC2)ccc1NC(=O)[C@H](Cc1c[nH]c2ccccc12)NS(=O)(=O)c1ccc(C)cc1 [Compound 121, (S)-3-(1H-indol-3-yl)-N-(2-methoxy-4-(piperazin-1-yl)phenyl)-2-(4-methylphenylsulfonamido)propanamide]	51.15 ± 0.5%	–	–	41.7 ± 17.3	–
Cc1ccc(S(=O)(=O)N[C@@H](Cc2c[nH]c3ccccc23)C(=O)Nc2ccc(N3CCN(C(=O)OC(C)(C)C)CC3)cc2)cc1 [Compound 122, (S)-tert-Butyl 4-(4-(3-(1H-indol-3-yl)-2-(4-methylphenylsulfonamido)propanamido)phenyl)piperazine-1-carboxylate]	69.45 ± 1.3%	–	–	38 ± 1.7	–
COc1cc(N2CCOCC2)ccc1NC(=O)[C@H](Cc1c[nH]c2ccccc12)NS(=O)(=O)c1ccc(C)cc1 [Compound 123, (S)-3-(1H-indol-3-yl)-N-(2-methoxy-4-morpholinophenyl)-2-(4-methylphenylsulfonamido)propanamide]	34.01 ± 10.45%	–	–	22.4 ± 11.8	–
Cc1ccc(S(=O)(=O)N[C@@H](Cc2c[nH]c3ccccc23)C(=O)Nc2ccc(N3CCNCC3)cc2)cc1 [Compound 124, (S)-3-(1H-indol-3-yl)-2-(4-methylphenylsulfonamido)-N-(4-(piperazin-1-yl)phenyl)propanamide]	16.44 ± 18.56%	–	–	20.9 ± 9.8	–
Cc1ccc(S(=O)(=O)N[C@@H](Cc2c[nH]c3ccccc23)C(=O)OCc2ccccc2)cc1 [Compound 127, (S)-Benzyl 3-(1H-indol-3-yl)-2-(4-methylphenylsulfonamido)propanoate]	94.24 ± 0.54%	–	49.9 ± 1.6	–	–
Cc1ccc(C(=O)N[C@@H](Cc2c[nH]c3ccccc23)C(=O)OCc2ccccc2)cc1 [Compound 128, (S)-Benzyl 3-(1H-indol-3-yl)-2-(4-methylbenzamido)propanoate]	63.08 ± 7.72%	–	36.8 ± 8.13	–	–
Cc1ccc(C(=O)N[C@@H](Cc2c[nH]c3ccccc23)C(=O)Nc2ccc(N3CCOCC3)cc2)cc1 [Compound 129, (S)—N-(3-(1 Indol-3-yl)-1-(4-morpholinophenylamino)-1-oxopropan-2-yl)-4-methylbenzamide]	60.35 ± 3.98%	53.02 ± 9.60	–	–	–
Cc1ccc(S(=O)(=O)NCC(=O)N2CCOCC2)cc1 [Compound 155, 4-Methyl-N-(2-morpholino-2-oxoethyl)benzenesulfonamide]	17.30 ± 0.81%	–	31.3 ± 4.4	–	–
Cc1ccc(S(=O)(=O)NC2(C(=O)N3CCOCC3)CCCCC2)cc1 [Compound 156, 4-Methyl-N-(1-(morpholine-4-carbonyl)cyclohexyl)benzenesulfonamide]	13.51 ± 2.04%	–	-0.2 ± 6.6	–	–
O=C(Nc1ccc(N2CCOCC2)cc1)[C@H](Cc1c[nH]c2ccccc12)NS(=O)(=O)c1ccc(O)cc1 [Compound 158, (S)-2-(4-Hydroxyphenylsulfonamido)-3-(1H-indol-3-yl)-N-(4-morpholinophenyl)propanamide]	24.87 ± ? .01%	–	–	-7.04 ± 4.87	–
O=C(O)c1ccc(S(=O)(=O)N[C@@H](Cc2c[nH]c3ccccc23)C(=O)Nc2ccc(N3CCOCC3)cc2)cc1 [Compound 159, (S)-4-(N-(3-(1-indol-3-yl)-1-(4-morpholinophenylamino)-1-oxopropan-2-yl)sulfamoyl)benzoic acid]	24.60 ± ? .96%	–	–	–	1.75 ± 8.96 (10 μM)
N[C@@H](Cc1c[nH]c2ccccc12)C(=O)Nc1ccc(N2CCOCC2)cc1 [Compound 160, (S)-2-Amino-3-(1-indol-3-yl)-N-(4-morpholinophenyl)propanamide]	15.52 ± 9.58%	–	–	–	14.92 ± 17.49 (10 μM)
CC(=O)N1CCN(c2ccc(NC(=O)[C@H](Cc3c[nH]c4ccccc34)NS(=O)(=O)c3ccc(C)cc3)cc2)CC1 [Compound 162, (S)—N-(4-(4-Acetylpiperazin-1-yl)phenyl)-3-(1H-indol-3-yl)-2-(4-methylphenylsulfonamido)propanamide]	19.92 ± 16.25%	–	–	20.6 ± 3.17	–
Cc1ccc(S(=O)(=O)N[C@@H](Cc2c[nH]c3ccccc23)C(=O)NC(C)C)cc1 [Compound 180, (S)-3-(1H-indol-3-yl)-N-isopropyl-2-(4-methylphenylsulfonamido)propanamide]	28.20 ± 5.02%	–	4.04 ± 4.08	–	–
CC(C)NC(=O)[C@H](Cc1c[nH]c2ccccc12)NS(=O)(=O)c1ccc(Br)cc1 [Compound 181, (S)-2-(4-Bromophenylsulfonamido)-3-(1H-indol-3-yl)-N-isopropylpropanamide]	98.95 ± 0.74%	–	44.1 ± 2.97	–	–
